Measured values as given in patent US12134620B2 (ARAXES PHARMA LLC, priority 2018, dated 2024).

Molecular target: T1, KRAS G12C 1-169, his-tagged protein, GDP-loaded (Homo sapiens, UniProt P01116, G12C)
T1 construct: KRAS G12C 1-169, his-tagged protein, GDP-loaded; His tag
Test: Biochemical assay: covalent modification of KRAS G12C, analysed by mass spectrometry (RapidFire/TOF or Q-Exactive); also: time not given here
Assay type: binding
Details: Modification activity, modification percentage from MS peak intensities
Procedure, shortened: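 Covalent adduct formation was quantified by intact-protein mass spectrometry, either TOF or C4 LC-Q Exactive Plus, as percent modified versus unmodified protein after deconvolution. Compounds at 8 or 32 μM final were incubated with 0.5 or 2 μM GDP-bound KRAS G12C(1-169)-His in Hepes/NaCl/MgCl2 buffer before acid quench.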

Question: `C=CC(=O)N1CC2(CCN(c3nc(N4CCOC(c5ccccc5)C4)nc(-c4c(C)ccc5[nH]ncc45)c3C#N)C2)C1` (stereo not shown) [Compound I-109, 4-(2-acryloyl-2,6-diazaspiro[3.4]octan-6-yl)-6-(5-methyl-1H-indazol-4-yl)-2-(2-phenylmorpholino)py-rimidine-5-carbonitrile] was tested. Which Binding % did it give?
Answer: The Binding % was “++ (++ indicates binding activity from 50 to 85%)”.

Question: For `C=CC(=O)N1CC2(CCN(c3nc(N4CCCC(N(C)C)C4)nc(-c4c(C)ccc5[nH]ncc45)c3C#N)C2)C1` (stereo not shown) [Compound I-110, 4-(2-acryloyl-2,6-diazaspiro[3.4]octan-6-yl)-2-(3-(dimethylamino)piperi-din-1-yl)-6-(5-methyl-1H-indazol-4-yl)pyrimidine-5-carbonitrile], which Binding % is on record?
Answer: The Binding % was “+++ (+++ indicates binding activity greater than 85%)”.

Question: `C=CC(=O)N1CC2(CCN(c3nc(N4CCN(C)CC4=O)nc(-c4c(C)ccc5[nH]ncc45)c3C#N)C2)C1` [Compound I-111, 4-(2-acryloyl-2,6-diazaspiro[3.4]octan-6-yl)-6-(5-methyl-1H-indazol-4-yl)-2-(4-methyl-2-oxopiperazin-1-yl)pyrimidine-5-carbonitrile] was tested. Which Binding % did it give?
Answer: The Binding % was “+ (+ indicates binding activity greater than 0% and up to 50%)”.

Question: With `C=CC(=O)N1CC2(CCN(c3nc(N4CCC5(CC4)CN(C)C5)nc(-c4c(C)ccc5[nH]ncc45)c3C#N)C2)C1` [Compound I-112, 4-(2-acryloyl-2,6-diazaspiro[3.4]octan-6-yl)-6-(5-methyl-1H-indazol-4-yl)-2-(2-methyl-2,7-diazaspiro[3.5]nonan-7-yl)pyrimidine-5-carbonitrile] as the compound, how does the Binding % read?
Answer: Its Binding % is “+++ (+++ indicates binding activity greater than 85%)”.

Question: `C=CC(=O)N1CC2(CCN(c3nc(OCc4ccccn4)nc(-c4cccc5ccccc45)c3C#N)C2)C1` [Compound I-113, 4-(2-acryloyl-2,6-diazaspiro[3.4]octan-6-yl)-6-(naphthalen-1-yl)-2-(pyridin-2-ylmethoxy)pyrimidine-5-carbonitrile] was tested. Which Binding % did it give?
Answer: Its Binding % is “+ (+ indicates binding activity greater than 0% and up to 50%)”.

Question: With `C=CC(=O)N1CC2(CCN(c3nc(OCc4ccccn4)nc(-c4cc(O)cc5ccccc45)c3C#N)C2)C1` [Compound I-114, 4-(2-acryloyl-2,6-diazaspiro[3.4]octan-6-yl)-6-(3-hydroxynaphthalen-1-yl)-2-(pyridin-2-ylmethoxy)pyrimidine-5-carbonitrile] as the compound, how does the Binding % read?
Answer: The Binding % was “+++ (+++ indicates binding activity greater than 85%)”.

Question: For `C=CC(=O)N1CC2(CCN(c3nc(OC[C@@H]4CCCN4C)nc(-c4cc(-c5cn[nH]c5)ccc4F)c3C#N)C2)C1` [Compound I-115, (S)-4-(2-acryloyl-2,6-diazaspiro[3.4]octan-6-yl)-6-(2-fluoro-5-(1H-pyrazol-4-yl)phenyl)-2-((1-methylpyrrolidin-2-yl)methoxy)pyrimidine-5-carbonitrile], which Binding % is on record?
Answer: Its Binding % is “+ (+ indicates binding activity greater than 0% and up to 50%)”.

Question: For `C=CC(=O)N1CC2(CCN(c3nc(OC[C@H]4CCN(C)C4)nc(-c4c(C)ccc5[nH]ncc45)c3C#N)C2)C1` [Compound I-116, 4-(2-acryloyl-2,6-diazaspiro[3.4]octan-6-yl)-6-(5-methyl-1H-indazol-4-yl)-2-(((S)-1-methylpyrrolidin-3-yl)methoxy)pyrimidine-5-carbonitrile], which Binding % is on record?
Answer: The Binding % was “++ (++ indicates binding activity from 50 to 85%)”.

Question: For `C=CC(=O)N1CC2(CCN(c3nc(OC[C@@H]4COCCN4C)nc(-c4c(C)ccc5[nH]ncc45)c3C#N)C2)C1` [Compound I-117, 4-(2-acryloyl-2,6-diazaspiro[3.4]octan-6-yl)-6-(5-methyl-1H-indazol-4-yl)-2-(((S)-4-methylmorpholin-3-yl)methoxy)pyrimidine-5-carbonitrile], which Binding % is on record?
Answer: The Binding % was “++ (++ indicates binding activity from 50 to 85%)”.

Question: How did the Binding % turn out when `C=CC(=O)N1CC2(CCN(c3nc(N4CCOCC4)nc(-c4c(C)ccc5[nH]ncc45)c3F)C2)C1` [Compound I-118, 1-(6-(5-fluoro-6-(5-methyl-1H-indazol-4-yl)-2-morpholinopyrimidin-4-yl)-2,6-diazaspiro[3.4]octan-2-yl)prop-2-en-1-one] was run?
Answer: The Binding % was “++ (++ indicates binding activity from 50 to 85%)”.

Question: For `C=CC(=O)N1CC2(CCN(c3nc(N4CCOCC4)nc(-c4c(F)ccc5cnn(C)c45)c3C#N)C2)C1` [Compound I-119, 4-(2-acryloyl-2,6-diazaspiro[3.4]octan-6-yl)-6-(6-fluoro-1-methyl-1H-indazol-7-yl)-2-morpholinopyrimidine-5-carbontrile], which Binding % is on record?
Answer: Its Binding % is “++ (++ indicates binding activity from 50 to 85%)”.

Question: With `C=CC(=O)N1CC2(CCN(c3nc(N4CCOCC4)nc(-c4c(F)ccc5cnn(C6CC6)c45)c3C#N)C2)C1` [Compound I-120, 4-(2-acryloyl-2,6-diazaspiro[3.4]octan-6-yl)-6-(1-cyclopropyl-6-fluoro-1H-indazol-7-yl)-2-morpholinopyrimidine-5-carbonitrile] as the compound, how does the Binding % read?
Answer: The Binding % was “+++ (+++ indicates binding activity greater than 85%)”.

Question: For `C=CC(=O)N1CC2(CCN(c3nc(N4CCOCC4)nc(-c4c(C)ccc5[nH]ncc45)c3OC)C2)C1` [Compound I-121, 1-(6-(5-methoxy-6-(5-methyl-1H-indazol-4-yl)-2-morpholinopyrimidin-4-yl)-2,6-diazaspiro[3.4]octan-2-yl)prop-2-en-1-one], which Binding % is on record?
Answer: The Binding % was “++ (++ indicates binding activity from 50 to 85%)”.

Question: Which Binding % does the source give for `C=CC(=O)N1CC2(CCN(c3nc(N4CCCC(O)C4)nc(-c4c(C)ccc5[nH]ncc45)c3C#N)C2)C1` (stereo not shown) [Compound I-122, 4-(2-acryloyl-2,6-diazaspiro[3.4]octan-6-yl)-2-(3-hydroxypiperidin-1-yl)-6-(5-methyl-1H-indazol-4-yl)pyrimidine-5-carbonitrile] here?
Answer: The Binding % was “++ (++ indicates binding activity from 50 to 85%)”.

Question: Which Binding % does the source give for `C=CC(=O)N1CC2(CCN(c3nc(OCc4ccccn4)nc(-c4c(F)ccc5cnn(C)c45)c3C#N)C2)C1` [Compound I-123, 4-(2-acryloyl-2,6-diazaspiro[3.4]octan-6-yl)-6-(6-fluoro-1-methyl-1H-indazol-7-yl)-2-(pyridin-2-ylmethoxy)pyrimidine-5-carbonitrile] here?
Answer: The Binding % was “+ (+ indicates binding activity greater than 0% and up to 50%)”.

Question: With `C=CC(=O)N1CC2(CCN(c3nc(OC[C@@H]4CCCN4C)nc(-c4c(F)ccc5cnn(C6CC6)c45)c3C#N)C2)C1` [Compound I-124, 4-(2-acryloyl-2,6-diazaspiro[3.4]octan-6-yl)-6-(1-cyclopropyl-6-fluoro-1H-indazol-7-yl)-2-(((S)-1-methylpyrrolidin-2-yl)methoxy)pyrimidine-5-carbonitrile] as the compound, how does the Binding % read?
Answer: The Binding % was “+ (+ indicates binding activity greater than 0% and up to 50%)”.

Question: For `C=CC(=O)N1CC2(CCN(c3nc(OCC(=O)N4CCCC4)nc(-c4c(C)ccc5[nH]ncc45)c3C#N)C2)C1` [Compound I-127, 4-(2-acryloyl-2,6-diazaspiro[3.4]octan-6-yl)-6-(5-methyl-1H-indazol-4-yl)-2-(2-oxo-2-(pyrrolidin-1-yl)ethoxy)pyrimidine-5-carbonitrile], which Binding % is on record?
Answer: Its Binding % is “+ (+ indicates binding activity greater than 0% and up to 50%)”.

Question: For `C=CC(=O)N1CC2(CC(=O)N(c3nc(N4CCOCC4)nc(-c4c(C)ccc5[nH]ncc45)c3C#N)C2)C1` [Compound I-130, 4-(2-acryloyl-7-oxo-2,6-diazaspiro[3.4]octan-6-yl)-6-(5-methyl-1H-indazol-4-yl)-2-morpholinopyrimidine-5-carbonitrile], which Binding % is on record?
Answer: Its Binding % is “++ (++ indicates binding activity from 50 to 85%)”.

Question: With `C=CC(=O)N1CC2(CCN(c3nc(-c4c(C)ccc5[nH]ncc45)ncc3C#N)C2)C1` [Compound I-141, 4-(2-acryloyl-2,6-diazaspiro[3.4]octan-6-yl)-2-(5-methyl-1H-indazol-4-yl)pyrimidine-5-carbonitrile] as the compound, how does the Binding % read?
Answer: The Binding % was “+ (+ indicates binding activity greater than 0% and up to 50%)”.

Question: With `C=CC(=O)N1CC2(CCN(c3nc(-c4c(C)ccc5[nH]ncc45)c(C#N)c(N4CCOCC4)n3)C2)C1` [Compound I-142, 2-(2-acryloyl-2,6-diazaspiro[3.4]octan-6-yl)-4-(5-methyl-1H-indazol-4-yl)-6-morpholinopyrimidine-5-carbonitrile] as the compound, how does the Binding % read?
Answer: Its Binding % is “+ (+ indicates binding activity greater than 0% and up to 50%)”.

Question: With `C=CC(=O)N1CC2(CCN(c3nc(-c4c(C)ccc5[nH]ncc45)cc(N4CC(N(C)C)C4)n3)C2)C1` [Compound I-143, 1-(6-(4-(3-(dimethylamino)azeti-din-1-yl)-6-(5-methyl-1H-indazol-4-yl)pyrimidin-2-yl)-2,6-diazaspiro[3.4]octan-2-yl)prop-2-en-1-one] as the compound, how does the Binding % read?
Answer: The Binding % was “+ (+ indicates binding activity greater than 0% and up to 50%)”.

Question: How did the Binding % turn out when `C=CC(=O)N1CC2(CCN(c3nc(-c4c(C)ccc5[nH]ncc45)cc(N4CCOCC4)n3)C2)C1` [Compound I-144, 1-(6-(4-(5-methyl-1H-indazol-4-yl)-6-morpholinopyrimidin-2-yl)-2,6-diazaspiro[3.4]octan-2-yl)prop-2-en-1-one] was run?
Answer: Its Binding % is “+ (+ indicates binding activity greater than 0% and up to 50%)”.

Question: For `C=CC(=O)N1CC2(CCN(c3ncc(C#N)c(-c4c(C)ccc5[nH]ncc45)n3)C2)C1` [Compound I-145, 2-(2-acryloyl-2,6-diazaspiro[3.4]octan-6-yl)-4-(5-methyl-1H-indazol-4-yl)pyrimidine-5-carbonitrile], which Binding % is on record?
Answer: The Binding % was “+ (+ indicates binding activity greater than 0% and up to 50%)”.

Question: `C=CC(=O)N1CC2(CCN(c3nc(OCCCN(C)C)cc(-c4c(C)ccc5[nH]ncc45)n3)C2)C1` [Compound I-146, 1-(6-(4-(3-(dimethylamino)pro-poxy)-6-(5-methyl-1H-indazol-4-yl)pyrimidin-2-yl)-2,6-diazaspiro[3.4]octan-2-yl)prop-2-en-1-one] was tested. Which Binding % did it give?
Answer: The Binding % was “+ (+ indicates binding activity greater than 0% and up to 50%)”.

Question: Which Binding % does the source give for `C=CC(=O)N1CC2(CCN(c3nc(-c4c(C)ccc5[nH]ncc45)c(C#N)c(N4CC(N(C)C)C4)n3)C2)C1` [Compound I-147, 2-(2-acryloyl-2,6-diazaspiro[3.4]octan-6-yl)-4-(3-(dimethylamino)azeti-din-1-yl)-6-(5-methyl-1H-indazol-4-yl)pyrimidine-5-carbonitrile] here?
Answer: The Binding % was “+ (+ indicates binding activity greater than 0% and up to 50%)”.
